Measurements as given in PMC9090415, “Discovery of small molecule inhibitors of Plasmodium falciparum apicoplast DNA polymerase” (Journal of Enzyme Inhibition and Medicinal Chemistry, 2022).

Molecular target: T1, bacteriophage T4 DNA polymerase (Enterobacteria phage T4, UniProt P04415)
T1 construct: made in house
T1 sequence (P04415 1-898): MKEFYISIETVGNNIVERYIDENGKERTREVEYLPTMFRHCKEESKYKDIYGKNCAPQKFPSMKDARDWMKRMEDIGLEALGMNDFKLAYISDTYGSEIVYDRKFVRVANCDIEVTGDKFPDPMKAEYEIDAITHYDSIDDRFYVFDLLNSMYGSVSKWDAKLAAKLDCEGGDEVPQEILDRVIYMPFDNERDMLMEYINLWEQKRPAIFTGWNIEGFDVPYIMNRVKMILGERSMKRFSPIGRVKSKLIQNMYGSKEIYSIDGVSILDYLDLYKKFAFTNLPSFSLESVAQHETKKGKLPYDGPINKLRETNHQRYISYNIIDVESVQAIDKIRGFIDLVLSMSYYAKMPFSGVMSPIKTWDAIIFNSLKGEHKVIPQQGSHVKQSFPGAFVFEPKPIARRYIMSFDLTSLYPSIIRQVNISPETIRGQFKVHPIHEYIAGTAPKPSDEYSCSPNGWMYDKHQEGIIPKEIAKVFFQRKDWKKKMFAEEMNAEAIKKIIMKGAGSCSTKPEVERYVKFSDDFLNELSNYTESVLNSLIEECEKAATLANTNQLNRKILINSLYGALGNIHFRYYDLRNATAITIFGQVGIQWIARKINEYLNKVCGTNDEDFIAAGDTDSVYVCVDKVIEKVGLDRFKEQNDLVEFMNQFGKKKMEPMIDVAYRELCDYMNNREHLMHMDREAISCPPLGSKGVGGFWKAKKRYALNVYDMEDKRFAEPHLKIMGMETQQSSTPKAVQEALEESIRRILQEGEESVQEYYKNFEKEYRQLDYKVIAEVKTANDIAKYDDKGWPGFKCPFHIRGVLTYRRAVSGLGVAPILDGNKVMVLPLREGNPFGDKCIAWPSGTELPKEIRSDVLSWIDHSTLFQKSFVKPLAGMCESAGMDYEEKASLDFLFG
Test: Counter-screen against bacteriophage T4 DNA polymerase
Format: biochemical
Conditions: for % inhibition T4 10' 2.5 / % inhibition T4 10' 5 / % inhibition T4 10' 10 / % inhibition T4 10' 20 / % inhibition T4 10' 40 / % inhibition T4 10' 80: read at 10'; for % inhibition T4 10' 2.5 / % inhibition T4 70' 2.5 / % inhibition T4 130' 2.5 / % inhibition T4 40' 2.5 / % inhibition T4 90' 2.5 / % inhibition T4 180' 2.5: concentration 2.5; for % inhibition T4 70' 2.5 / % inhibition T4 70' 5 / % inhibition T4 70' 10 / % inhibition T4 70' 20 / % inhibition T4 70' 40 / % inhibition T4 70' 80: read at 70'; for % inhibition T4 130' 2.5 / % inhibition T4 130' 5 / % inhibition T4 130' 10 / % inhibition T4 130' 20 / % inhibition T4 130' 40 / % inhibition T4 130' 80: read at 130'; for % inhibition T4 40' 2.5 / % inhibition T4 40' 5 / % inhibition T4 40' 10 / % inhibition T4 40' 20 / % inhibition T4 40' 40 / % inhibition T4 40' 80: read at 40'; for % inhibition T4 90' 2.5 / % inhibition T4 90' 5 / % inhibition T4 90' 10 / % inhibition T4 90' 20 / % inhibition T4 90' 40 / % inhibition T4 90' 80: read at 90'; for % inhibition T4 180' 2.5 / % inhibition T4 180' 5 / % inhibition T4 180' 10 / % inhibition T4 180' 20 / % inhibition T4 180' 40 / % inhibition T4 180' 80: read at 180'
Outline: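 Purified T4 DNA polymerase, a B-family enzyme, served as the counter-screen enzyme. Compounds were tested in dose-response format and IC50 values were derived.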

SMILES: COc1ccc(CNC(=O)Cn2nc3c(c2NC(=O)Cc2cccs2)CSC3)cc1 [Molecule 55, COc1ccc(cc1)CNC(=O)Cn1nc2c(c1NC(=O)Cc1cccs1)CSC2]
- % inhibition T4 10' (DRC-2, concentration 5): 18%
- % inhibition T4 10' (DRC-2, concentration 10): 26%
- % inhibition T4 10' (DRC-2, concentration 20): 26%
- % inhibition T4 40' (DRC-2, concentration 10): 26%
- % inhibition T4 40' (DRC-2, concentration 20): 28%
- % inhibition T4 40' (DRC-2, concentration 80): 38%
- % inhibition T4 90' (DRC-2, concentration 20): 26%
- % inhibition T4 90' (DRC-2, concentration 80): 38%
- % inhibition T4 180' (DRC-2, concentration 10): 18%
- % inhibition T4 180' (DRC-2, concentration 40): 28%

SMILES: Cc1ccc(N2CCC(NC(=O)Cc3cccs3)C2=O)cc1C (stereo not shown) [Molecule 57, O=C(NC1CCN(C1=O)c1ccc(c(c1)C)C)Cc1cccs1]
- % inhibition T4 10' 2.5 (DRC-1): -2.9635%
- % inhibition T4 10' 5 (DRC-1, concentration 5): 6.066%
- % inhibition T4 10' 10 (DRC-1, concentration 10): 19.8361%
- % inhibition T4 10' 20 (DRC-1, concentration 20): 23.1597%
- % inhibition T4 10' 40 (DRC-1, concentration 40): 29.7521%
- % inhibition T4 10' 80 (DRC-1, concentration 80): 29.7097%
- % inhibition T4 70' 2.5 (DRC-1): -3.783%
- % inhibition T4 70' 5 (DRC-1, concentration 5): 0.9049%
- % inhibition T4 70' 10 (DRC-1, concentration 10): 15.0423%
- % inhibition T4 70' 20 (DRC-1, concentration 20): 17.1422%
- % inhibition T4 70' 40 (DRC-1, concentration 40): 24.1448%
- % inhibition T4 70' 80 (DRC-1, concentration 80): 21.6253%
- % inhibition T4 130' 2.5 (DRC-1): -5.326%
- % inhibition T4 130' 5 (DRC-1, concentration 5): -0.359%
- % inhibition T4 130' 10 (DRC-1, concentration 10): 12.5508%
- % inhibition T4 130' 20 (DRC-1, concentration 20): 13.7416%
- % inhibition T4 130' 40 (DRC-1, concentration 40): 21.2189%
- % inhibition T4 130' 80 (DRC-1, concentration 80): 19.4508%
- % inhibition T4 10' 2.5 (DRC-2): 14%
- % inhibition T4 10' 5 (DRC-2, concentration 5): 12%
- % inhibition T4 10' 10 (DRC-2, concentration 10): 20%
- % inhibition T4 10' 20 (DRC-2, concentration 20): 23%
- % inhibition T4 10' 40 (DRC-2, concentration 40): 25%
- % inhibition T4 10' 80 (DRC-2, concentration 80): 26%
- % inhibition T4 40' 2.5 (DRC-2): 13%
- % inhibition T4 40' 5 (DRC-2, concentration 5): 12%
- % inhibition T4 40' 10 (DRC-2, concentration 10): 20%
- % inhibition T4 40' 20 (DRC-2, concentration 20): 27%
- % inhibition T4 40' 40 (DRC-2, concentration 40): 30%
- % inhibition T4 40' 80 (DRC-2, concentration 80): 35%
- % inhibition T4 90' 2.5 (DRC-2): 13%
- % inhibition T4 90' 5 (DRC-2, concentration 5): 11%
- % inhibition T4 90' 10 (DRC-2, concentration 10): 20%
- % inhibition T4 90' 20 (DRC-2, concentration 20): 26%
- % inhibition T4 90' 40 (DRC-2, concentration 40): 29%
- % inhibition T4 90' 80 (DRC-2, concentration 80): 37%
- % inhibition T4 180' 2.5 (DRC-2): 11%
- % inhibition T4 180' 5 (DRC-2, concentration 5): 10%
- % inhibition T4 180' 10 (DRC-2, concentration 10): 18%
- % inhibition T4 180' 20 (DRC-2, concentration 20): 25%
- % inhibition T4 180' 40 (DRC-2, concentration 40): 28%
- % inhibition T4 180' 80 (DRC-2, concentration 80): 37%

SMILES: Nc1cc(Oc2ccc(O)c(N)c2)ccc1O [KU0034728]
- % inhibition T4 10' 2.5 (DRC-1): 10.6184%
- % inhibition T4 10' 5 (DRC-1, concentration 5): 9.797%
- % inhibition T4 10' 10 (DRC-1, concentration 10): 12.6946%
- % inhibition T4 10' 20 (DRC-1, concentration 20): 6.887%
- % inhibition T4 10' 40 (DRC-1, concentration 40): 15.6951%
- % inhibition T4 10' 80 (DRC-1, concentration 80): 21.8837%
- % inhibition T4 70' 2.5 (DRC-1): 10.2077%
- % inhibition T4 70' 5 (DRC-1, concentration 5): 9.3179%
- % inhibition T4 70' 10 (DRC-1, concentration 10): 12.3114%
- % inhibition T4 70' 20 (DRC-1, concentration 20): 7.7965%
- % inhibition T4 70' 40 (DRC-1, concentration 40): 14.4419%
- % inhibition T4 70' 80 (DRC-1, concentration 80): 19.0676%
- % inhibition T4 130' 2.5 (DRC-1): 10.8947%
- % inhibition T4 130' 5 (DRC-1, concentration 5): 9.975%
- % inhibition T4 130' 10 (DRC-1, concentration 10): 11.1726%
- % inhibition T4 130' 20 (DRC-1, concentration 20): 8.154%
- % inhibition T4 130' 40 (DRC-1, concentration 40): 14.6568%
- % inhibition T4 130' 80 (DRC-1, concentration 80): 18.4293%
- % inhibition T4 10' 2.5 (DRC-2): -8.57%
- % inhibition T4 10' 5 (DRC-2, concentration 5): -11%
- % inhibition T4 10' 10 (DRC-2, concentration 10): -3.21%
- % inhibition T4 10' 20 (DRC-2, concentration 20): -7%
- % inhibition T4 10' 40 (DRC-2, concentration 40): 3.18%
- % inhibition T4 10' 80 (DRC-2, concentration 80): 12%
- % inhibition T4 40' 2.5 (DRC-2): -8%
- % inhibition T4 40' 5 (DRC-2, concentration 5): -11%
- % inhibition T4 40' 10 (DRC-2, concentration 10): -5.5%
- % inhibition T4 40' 20 (DRC-2, concentration 20): -8%
- % inhibition T4 40' 40 (DRC-2, concentration 40): -2.76%
- % inhibition T4 40' 80 (DRC-2, concentration 80): -1.54%
- % inhibition T4 90' 2.5 (DRC-2): -7%
- % inhibition T4 90' 5 (DRC-2, concentration 5): -9.49%
- % inhibition T4 90' 10 (DRC-2, concentration 10): -3.47%
- % inhibition T4 90' 20 (DRC-2, concentration 20): -7%
- % inhibition T4 90' 40 (DRC-2, concentration 40): -4.46%
- % inhibition T4 90' 80 (DRC-2, concentration 80): -9%
- % inhibition T4 180' 2.5 (DRC-2): -11%
- % inhibition T4 180' 5 (DRC-2, concentration 5): -15%
- % inhibition T4 180' 10 (DRC-2, concentration 10): -8%
- % inhibition T4 180' 20 (DRC-2, concentration 20): -11%
- % inhibition T4 180' 40 (DRC-2, concentration 40): -7.51%
- % inhibition T4 180' 80 (DRC-2, concentration 80): -14%
